Patent US20260184712A1, “Heterocyclic Compounds as ENT Inhibitors and Compounds for Use in the Treatment of Cancers” (iTeos Belgium SA, priority 2022, published 2026)

Biological target: T1, human ENT1 (Homo sapiens, UniProt Q99808)
T1 construct: JAR cells expressing ENT1 were purchased from ATCC; host or cells: JAR cells
T1 sequence (Q99808 1-456): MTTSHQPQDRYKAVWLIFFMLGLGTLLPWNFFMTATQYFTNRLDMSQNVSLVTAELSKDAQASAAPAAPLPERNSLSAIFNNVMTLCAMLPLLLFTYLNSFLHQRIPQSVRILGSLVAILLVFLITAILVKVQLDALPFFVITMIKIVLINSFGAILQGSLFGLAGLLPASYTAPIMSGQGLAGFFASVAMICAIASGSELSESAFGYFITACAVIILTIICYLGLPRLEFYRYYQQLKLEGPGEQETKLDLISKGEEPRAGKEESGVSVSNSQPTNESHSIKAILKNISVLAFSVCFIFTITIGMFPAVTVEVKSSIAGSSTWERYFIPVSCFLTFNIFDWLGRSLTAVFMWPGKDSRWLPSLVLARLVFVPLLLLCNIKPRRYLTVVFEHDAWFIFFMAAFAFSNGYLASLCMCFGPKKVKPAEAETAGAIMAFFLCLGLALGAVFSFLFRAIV
Assay: ENT1 binding assay (competition with Sahenta-DY647 on JAR cells)
Settings: competition with SAHENTA-DY647 binding; IC50 categorized; read-out: Binding Assay IC50
Summary of the method: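 Whole-cell competition on JAR cells (native ENT1): 50,000 cells pre-incubated 30 min at 4 °C with compound in HBSS/10 mM Hepes/0.1% BSA, then 100 nM Sahenta-DY647 added for 30 min at 4 °C. After washing, fluorescence (Ex 630/Em 670 nm) read; IC50 from sigmoidal fit, averaged as pIC50.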

Row | Compound | IC50 [nM]
1 | C[C@H]1O[C@@H](n2c(N[C@H]3CCC(F)(F)C3)nc3c(OCc4ccc(C#N)cc4)ncnc32)[C@H](O)[C@@H]1O [Compound 82] | 1 to 20
2 | C[C@H]1O[C@@H](n2cnc3c(SCc4ccc([N+](=O)[O-])cc4)ncnc32)[C@H](O)[C@@H]1O [Compound 147] | 1 to 20
3 | C[C@H]1O[C@@H](n2cnc3c(N4CCc5ccc([N+](=O)[O-])cc5C4)ncnc32)[C@H](O)[C@@H]1O [Compound 151] | 1 to 20
4 | C[C@H]1O[C@@H](n2cnc3c(OCc4ccc([N+](=O)[O-])cc4)ncnc32)[C@H](O)[C@@H]1O [Compound 166] | 20 to 500
5 | C[C@H]1O[C@@H](n2cnc3c(OCc4ccc(OC(F)F)cc4)ncnc32)[C@H](O)[C@@H]1O [Compound 173] | 20 to 500
6 | OCCOC[C@H]1O[C@@H](n2cnc3c(OCc4ccc(OC(F)(F)F)cc4)ncnc32)[C@H](O)[C@@H]1O [Compound 175] | 20 to 500

Continued, values first:

Row | IC50 [nM] | Compound
7 | < 1 | C[C@H]1O[C@@H](n2c(NC3CCCC3)nc3c(OCc4ccc([N+](=O)[O-])cc4)ncnc32)[C@H](O)[C@@H]1O [Compound 6]
8 | < 1 | C[C@H]1O[C@@H](n2c(NC3CCC(O)CC3)nc3c(OCc4ccc([N+](=O)[O-])cc4)ncnc32)[C@H](O)[C@@H]1O (stereo partly shown) [Compound 28]
9 | < 1 | C[C@H]1O[C@@H](n2c(NC3CCOCC3)nc3c(OCc4ccc(C#N)cc4)ncnc32)[C@H](O)[C@@H]1O [Compound 73]
10 | < 1 | C[C@H]1O[C@@H](n2c(NC3CCOCC3)nc3c(OCc4ccc(OC(F)F)nc4)ncnc32)[C@H](O)[C@@H]1O [Compound 75]
